Data: patent publication US5364772A, “DNA molecule encoding the β3 -adrenergic receptor” (Wayne State University, priority 1992, dated 1994)
One block for each molecule: values may come before it.

Experiments:
[1] = target: T1, full length (408 amino acids) human β3-adrenergic receptor (Homo sapiens, UniProt P13945); experiment: Functional activity (adenylyl cyclase) at full-length human β3 receptor expressed in CHO cells; assay type: biochemical
T1 construct: CHO cells expressing the full length human β3 receptor are harvested; expressed in transfected cells
T1 sequence (P13945 whole entry): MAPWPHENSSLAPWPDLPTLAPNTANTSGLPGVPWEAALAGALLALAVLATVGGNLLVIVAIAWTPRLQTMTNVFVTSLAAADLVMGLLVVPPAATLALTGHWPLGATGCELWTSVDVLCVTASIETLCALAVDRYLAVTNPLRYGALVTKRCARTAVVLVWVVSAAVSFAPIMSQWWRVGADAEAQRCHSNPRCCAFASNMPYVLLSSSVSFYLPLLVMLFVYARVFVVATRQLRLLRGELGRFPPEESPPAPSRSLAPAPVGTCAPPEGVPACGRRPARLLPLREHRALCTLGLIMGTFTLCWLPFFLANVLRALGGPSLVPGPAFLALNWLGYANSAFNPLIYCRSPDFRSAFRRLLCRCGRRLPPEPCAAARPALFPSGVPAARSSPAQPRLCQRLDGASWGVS
Method: Culture medium was removed and cells were washed in phosphate-buffered saline and then harvested in 25 mM HEPES (pH 8.0) buffer containing 2 mM MgCl2 and 1 mM EDTA. Cell were homogenized and centrifuged at 48,000×g for 15 min. to obtain crude membranes. Membrane pellets were resuspended and used directly or frozen at -80° until used. […] Membranes (5-15 μg of protein) were preincubated at 4°, in a volume of 40 μl, with the specified drugs for 15 min. Adenylyl cyclase reactions were initiated by addition of substrate mixture and were terminated after 30 min at 30°. […] Concentration-response data were analyzed by nonlinear regression analysis with a one-site mass action equation for transfected CHO cells (Enzfitter, Elsevier Biosoft).
Chinese hamster ovary (CHO) cells are transfected with constructs based upon the expression vector pRc/CMV. […] Transfection of CHO cells with DNA constructs is accomplished by the CaPO4 -DNA precipitation method as described in Maniatis et al., ibid. To obtain cells that stably express these DNA constructs, transfected cells are selected based upon their resistance to G418, which is conferred by the neomycin-resistance gene contained in pRc/CMV. Cells that survive selective conditions (e.g. 800 μg/ml G418) are then cloned by limiting dilution.
CHO cells expressing the full length human β3 receptor are harvested and membranes prepared as described by Granneman et al., ibid. Adenylyl cyclase activity is then determined in response to various agents known or thought to interact with the β3 receptor, using the method of Salomon, ibid. Agonists are identified by the ability to increase cyclic AMP generation above basal levels. Antagonists are identified by their ability to decrease adenylyl cyclase activity that is stimulated by 100 nM isoproterenol.

[2] = test system: truncated (402 amino acids) human β3-adrenergic receptor; conditions: cited from earlier work; for inhibition at the truncated receptor: Emorine et al., 1989
[3] = test system: adipose tissue-specific genes; conditions: Kletzien et al., 1992; cited from earlier work

SMILES: CC(Cc1ccc(OCC(=O)O)cc1)NCC(O)c1cccc(Cl)c1 (stereo not shown) [BRL 37344]
- agonist character ([1]; full length receptor): partial agonists
- activation potency ([1]; full-length receptor): relatively low potency
- agonist character [2]: partial agonists

SMILES: CC1(COc2ccc(CC3SC(=O)NC3=O)cc2)CCCCC1 (stereo not shown) [Cigilazone]
- effect on expression of adipose tissue-specific genes [3]: augment the expression of adipose tissue-specific genes

SMILES: CC(C)NCC(O)COc1cccc2ccccc12 (stereo not shown) [Propranolol]
- inhibition at the truncated receptor [2]: essentially inactive

- potency of inhibition of the full length receptor (antagonists) ([1]; full length receptor): submicromolar potencies
SMILES: C=CCc1ccccc1OCC(O)CNC(C)C (stereo not shown) [alprenolol]
- inhibition at the truncated receptor [2]: essentially inactive
